Structures can show the parent of a compound that is named as a salt.
Assays:
[1] = biological target: T1, h-5-HT6 receptor (Homo sapiens, UniProt P50406); assay: 5-HT6 receptor binding assay (displacement of [3H]-LSD); conditions: cloned human 5-HT6 receptor, HEK293 membranes, 1 nM [3H]-LSD
T1 construct: expressed in transfected cells
Experimental: Displacement of radioligands binding to the following cloned human receptors
1. Preparation of Membranes by Ultrasonic Treatment and Differential Centrifugation
Cells from stable clonal cell lines expressing the corresponding receptor (5-HT6, α1-adrenergic, dopamine D2 or histamine H1 receptors) were washed with PBS (w/o Ca^++, Mg^++) and harvested in PBS with 0.02% EDTA. The cells were collected by centrifugation at 500 g for 10 min. at 4° C., washed with PBS and centrifuged (500 g, 10 min. 4° C.). The pellets were stored at −80° C. until use. For membrane preparation, the thawed cell pellet was resuspended in ice-cold sucrose buffer (0.25 M sucrose, 10 mM Hepes (pH 7.4), 1 mM Phenylmethylsulfonyl fluoride (PMSF) in DMSO, 5 μg/ml Pepstatin-A, 3 mM EDTA, 0.025% Bacitracin) and homogenized with a Branson Sonifier W-250 (Settings: Timer 4; Output Control 3; Duty Cycle constant; 2 to 3 cycles). Cell disruption was checked with the aid of a microscope. Remaining unbroken cells were pelleted at 1.000 g for 10 min. at 4° C. The sucrose buffer supernatant was then centrifuged at 60.000 g for 1 h at 4° C. (Beckman Ultrazentrifuge XL 80). The pellet was resuspended in 30 ml ice-cold Tris buffer (20 mM TRIS (pH 7.4), 5 μg/ml Pepstatin A, 0.1 mM PMSF, 3 mM EDTA) by pipetting through a 10 ml serological pipet and centrifuged for 1 h at 4° C. at 60.000 g. A final resuspension was performed in a small volume of ice-cold Tris buffer (see above) by pressing through a serological pipet followed by ultrasonic treatment with a Branson Sonifier W-250 (Settings: Timer 1; Output Control 3; Duty Cycle constant; 1 cycle). Protein concentration was determined (BCA-Kit; Pierce) and aliquots stored at −80° C. or in liquid nitrogen for long-term storage.
2. Receptor Binding Experiments
All receptor binding experiments were carried out in the corresponding assay buffer in a total volume of 200 μl in the presence of various concentrations of test compound (10^−5 M to 10^−9 M, tenfold serial dilution, duplicate determinations). The assays were terminated by filtration on polyethylenimine (PEI 0.1% or 0.3%) presoaked Packard Unifilter Plates (GF/C or GF/B) with a Tomtec MachIII U 96 well-plate harvester. After the plates had been dried for 2 h at 55° C. in a drying chamber scintillation cocktail (BetaPlate Scint; PerkinElmer) was added. Radioactivity was measured in a Microbeta Trilux two hours after the addition of the scintillation mixture. Data derived from liquid scintillation counting were analysed by iterative non-linear regression analysis with the use of the Statistical Analysis System (SAS): a program similar to “LIGAND” as described by Munson and Rodbard (Analytical Biochemistry 107, 220-239 (1980).
a) 5-HT6 Receptor Binding Assay
HEK293 cells stably expressing the h-5-HT6 receptor (NCBI Reference Sequence XM 001435) were cultured in RPMI1640 medium supplemented with 25 mM HEPES, 10% fetal calf serum and 1-2 mM glutamine. The membrane preparation was performed as described in section 1. […] Non-specific binding was defined with 1 μM methiothepin. The binding reaction was carried out for 3.5 h at room temperature. During the incubation, the plates were shaken on a plate shaker at 100 rpm and terminated by filtration on Packard Unifilter GF/C (0.1% PEI) plates, followed by 2 wash cycles with ice-cold 50 mM Tris-HCl, 5 mM CaCl2.
Data derived from liquid scintillation counting were analyzed by iterative non-linear regression analysis with the use of the Statistical Analysis System (SAS): a program similar to “LIGAND” as described by Munson and Rodbard (Anal. Biochem. 1980, 107, 220-239). Fitting was performed according to formulae described by Feldman (Anal. Biochem. 1972, 48, 317-338). IC50, nH and Ki values were expressed as geometrical mean.

[2] = Metabolic stability in human liver microsomes (microsomal clearance); format: in vitro ADME; conditions: pH 7.4; human liver microsomes 0.25 mg protein/mL, 0.5 μM compound, NADPH, 37° C.; read-out: mClint
Experimental: Samples of the tested compounds (0.5 μM) were preincubated together with human liver microsomes (0.25 mg of microsomal protein/mL) in 0.05 M potassium phosphate buffer of pH 7.4 in microtiter plates at 37° C. for 5 minutes. The reaction was started by adding NADPH (1.0 mM). After 0, 5, 10, 15, 20 and 30 minutes, an aliquot was removed, the reaction was cooled and stopped by adding twice the amount of quench solution consisting of acetonitrile/methanol 1:1, and containing 0.2 μM carbutamide as internal standard. The samples were frozen until analyzed. The remaining concentration of undegraded test substance was determined by liquid chromatography-tandem mass spectrometry (LC-MS/MS). The half-life (t1/2) was determined from the gradient of the ratio of the signal of (test substance/internal standard)/unit time plot, allowing the calculation of the half-life of the test substance, assuming first order kinetics, from the decrease in the concentration of the compound with time. The microsomal clearance (mClint) was calculated as follows: mClint=((ln(2)/t 1/2)/Microsomal Protein Concentration (mg/ml))*1000, leading to the unit of μL/min/mg.

T1 sequence (P50406 whole entry): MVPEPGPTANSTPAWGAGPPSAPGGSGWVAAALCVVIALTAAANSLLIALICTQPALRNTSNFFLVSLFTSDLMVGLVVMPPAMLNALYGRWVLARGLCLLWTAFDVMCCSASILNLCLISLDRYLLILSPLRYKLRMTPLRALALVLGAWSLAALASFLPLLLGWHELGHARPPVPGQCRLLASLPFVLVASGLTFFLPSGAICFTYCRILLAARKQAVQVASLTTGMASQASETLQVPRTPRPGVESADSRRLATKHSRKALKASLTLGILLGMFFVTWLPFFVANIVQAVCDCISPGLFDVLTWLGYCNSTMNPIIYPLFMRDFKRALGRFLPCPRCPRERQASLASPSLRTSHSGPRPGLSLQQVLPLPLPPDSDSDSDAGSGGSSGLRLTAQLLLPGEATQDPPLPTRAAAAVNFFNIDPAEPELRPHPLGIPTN

SMILES | Ki [1] [µM] | microsomal CLint at 0.5 μM [2] [µL/min/mg]
O=C(O)C1CCN(c2cccc3cc(S(=O)(=O)c4cccc(C(F)(F)F)c4)cnc23)CC1 [Example 3, 1-[3-(3-Trifluoromethyl-benzenesulfonyl)-quinolin-8-yl]-piperidine-4-carboxylic Acid] | < 0.01 | < 30
O=C(O)C1CCCN(c2cccc3cc(S(=O)(=O)c4cccc(C(F)(F)F)c4)cnc23)C1 (stereo not drawn) [Example 6, 1-[3-(3-Trifluoromethyl-benzenesulfonyl)-quinolin-8-yl]-piperidine-3-carboxylic Acid] | 0.01 to 0.1 | < 30
CC1(O)CCN(c2cccc3cc(S(=O)(=O)c4cccc(C(F)(F)F)c4)cnc23)CC1 [Example 7, 4-Methyl-1-[3-[3-(trifluoromethyl)phenyl]sulfonyl-8-quinolyl]piperidin-4-ol Hydrochloride] | < 0.01 | 60 to 120
NC(=O)C1CCCN(c2cccc3cc(S(=O)(=O)c4cccc(C(F)(F)F)c4)cnc23)C1 (stereo not drawn) [Example 46, 1-[3-(3-Trifluoromethyl-benzenesulfonyl)-quinolin-8-yl]-piperidine-3-carboxylic Acid Amide] | < 0.01 | –
N#Cc1cccc(S(=O)(=O)c2cnc3c(N4CCC(C(=O)O)CC4)cccc3c2)c1 [Example 47, 1-[3-(3-Cyanophenyl)sulfonyl-8-quinolyl]piperidine-4-carboxylic Acid] | – | < 30
O=C(O)c1cccc(S(=O)(=O)c2cnc3c(N4CCC(C(=O)O)CC4)cccc3c2)c1 [Example 49, 1-[3-(3-Carboxyphenyl)sulfonyl-8-quinolyl]piperidine-4-carboxylic Acid] | – | < 30
O=C(O)C1CCN(c2cccc3cc(S(=O)(=O)c4cccc(OC(F)(F)F)c4)cnc23)CC1 [Example 51, 1-[3-[3-(Trifluoromethoxy)phenyl]sulfonyl-8-quinolyl]piperidine-4-carboxylic Acid] | – | 30 to 60
O=C(O)C1CCN(c2cccc3cc(S(=O)(=O)c4cccc(N5CCCC5)c4)cnc23)CC1 [Example 53, 1-[3-(3-Pyrrolidin-1-ylphenyl)sulfonyl-8-quinolyl]piperidine-4-carboxylic Acid] | – | 30 to 60
COC1CCN(c2cccc(S(=O)(=O)c3cnc4c(N5CCC(C(=O)O)CC5)cccc4c3)c2)C1 (stereo not drawn) [Example 54, 1-[3-[3-(3-Methoxypyrrolidin-1-yl)phenyl]sulfonyl-8-quinolyl]piperidine-4-carboxylic Acid] | – | < 30
O=C(O)C1CCN(c2cccc3cc(S(=O)(=O)c4cccc(N5CCNCC5)c4)cnc23)CC1 [Example 55, 1-[3-(3-Piperazin-1-ylphenyl)sulfonyl-8-quinolyl]piperidine-4-carboxylic Acid] | – | < 30
CN1CCN(c2cccc(S(=O)(=O)c3cnc4c(N5CCC(C(=O)O)CC5)cccc4c3)c2)CC1 [Example 56, 1-[3-[3-(4-Methylpiperazin-1-yl)phenyl]sulfonyl-8-quinolyl]piperidine-4-carboxylic Acid] | – | < 30
O=C(O)CC1CCN(c2cccc3cc(S(=O)(=O)c4cccc(C(F)(F)F)c4)cnc23)CC1 [Example 57, 2-[1-[3-[3-(Trifluoromethyl)phenyl]sulfonyl-8-quinolyl]-4-piperidyl]acetic Acid] | – | < 30
O=C(O)CC1CCCN(c2cccc3cc(S(=O)(=O)c4cccc(C(F)(F)F)c4)cnc23)C1 (stereo not drawn) [Example 58, 2-[1-[3-[3-(Trifluoromethyl)phenyl]sulfonyl-8-quinolyl]-3-piperidyl]acetic Acid] | – | 30 to 60

The remaining lines, values ahead:

Ki [1] [µM] | microsomal CLint at 0.5 μM [2] [µL/min/mg] | SMILES
< 0.01 | 30 to 60 | O=S(=O)(c1cccc(C(F)(F)F)c1)c1cnc2c(N3CCC(O)CC3)cccc2c1 [Example 1, 1-[3-(3-Trifluoromethyl-benzenesulfonyl)-quinolin-8-yl]-piperidin-4-ol]
< 0.01 | 60 to 120 | O=S(=O)(c1cccc(C(F)(F)F)c1)c1cnc2c(N3CCC(O)C3)cccc2c1 (stereo not drawn) [Example 2, 1-[3-(3-Trifluoromethyl-benzenesulfonyl)-quinolin-8-yl]-pyrrolidin-3-ol]
< 0.01 | 60 to 120 | O=S(=O)(c1cccc(C(F)(F)F)c1)c1cnc2c(N3CCC[C@H](O)C3)cccc2c1 [Example 4, (S)-1-[3-(3-Trifluoromethyl-benzenesulfonyl)-quinolin-8-yl]-piperidin-3-ol Hydrochloride]
< 0.01 | 60 to 120 | O=S(=O)(c1cccc(C(F)(F)F)c1)c1cnc2c(N3CCC[C@@H](O)C3)cccc2c1 [Example 5, (R)-1-[3-(3-Trifluoromethyl-benzenesulfonyl)-quinolin-8-yl]-piperidin-3-ol]
0.01 to 0.1 | – | O=C(O)[C@H]1CCN(c2cccc3cc(S(=O)(=O)c4cccc(C(F)(F)F)c4)cnc23)C1 [Example 11, (3S)-1-[3-[3-(Trifluoromethyl)phenyl]sulfonyl-8-quinolyl]pyrrolidine-3-carboxylic Acid]
0.01 to 0.1 | – | COc1cccc(S(=O)(=O)c2cnc3c(N4CC(O)C4)cccc3c2)c1 [Example 14, 1-[3-(3-Methoxyphenyl)sulfonyl-8-quinolyl]azetidin-3-ol]
0.01 to 0.1 | – | O=S(=O)(c1cnc2c(F)cccc2c1)c1ccccc1N1CCC(O)CC1 [Example 25, 1-[2-[(8-Fluoro-3-quinolyl)sulfonyl]phenyl]piperidin-4-ol]
< 0.01 | – | O=S(=O)(c1cccc(F)c1)c1cnc2c(N3CC[C@H](O)C3)cccc2c1 [Example 26, (3S)-1-[3-(3-Fluorophenyl)sulfonyl-8-quinolyl]pyrrolidin-3-ol]
0.01 to 0.1 | – | COc1ccc(C)cc1S(=O)(=O)c1cnc2c(N3CCC(O)CC3)cccc2c1 [Example 35, 1-[3-(2-Methoxy-5-methyl-phenyl)sulfonyl-8-quinolyl]piperidin-4-ol]
0.1 to 0.5 | – | O=S(=O)(c1cnc2c(F)cccc2c1)c1ccccc1N1CC(O)C1 [Example 38, 1-[2-[(8-Fluoro-3-quinolyl)sulfonyl]phenyl]azetidin-3-ol]
0.01 to 0.1 | – | COc1ccc(C)cc1S(=O)(=O)c1cnc2c(N3CC(O)C3)cccc2c1 [Example 40, 1-[3-(2-Methoxy-5-methyl-phenyl)sulfonyl-8-quinolyl]azetidin-3-ol]
– | < 30 | Cc1cccc(S(=O)(=O)c2cnc3c(N4CCC(C(=O)O)CC4)cccc3c2)c1 [Example 50, 1-[3-(m-Tolylsulfonyl)-8-quinolyl]piperidine-4-carboxylic Acid]
– | 30 to 60 | O=C(O)C1CCN(c2cccc3cc(S(=O)(=O)c4cccc(F)c4)cnc23)CC1 [Example 52, 1-[3-(3-Fluorophenyl)sulfonyl-8-quinolyl]piperidine-4-carboxylic Acid]
